Patent US20150141375A1 (priority 2009, published 2015)

Legend:
HCMV (AD169) = assay: HCMV real time array of viral transcripts; type: cell-based; conditions: CDV 50 μM, GCV 15 μM, CMX001 0.5 μM; ANOVA P<0.05
[1] = 3-way crossover bioavailability / food effect study in healthy volunteers; type: in vivo, human
Experimental: An open-label, 3-way crossover study in healthy volunteers comparing the bioavailability of CMX001 tablet versus solution formulation and the effect of food on CMX001 pharmacokinetics was completed. 24 healthy volunteers received 40 mg tablets (fed), 40 mg tablets (fasted), and 40 mg as a solution (fasted). […] Exposure as indicated by AUC was unchanged.

BK Virus = conditions: has been reported; read-out: EC50 for BK virus infection; cited from earlier work

CCCCCCCCCCCCCCCCOCCCOP(=O)(O)CO[C@H](CO)Cn1ccc(N)nc1=O [CMX001, Hexadecyloxypropyl-cidofovir]
levels of viral transcripts (HCMV (AD169)): Significant reductions in levels of most viral transcripts | adverse events ([1]; 40 mg): no serious adverse events | exposure as indicated by AUC ([1]; 40 mg): unchanged | reduction of plasma Cmax by a high fat meal ([1]; 40 mg tablets): approximately 40% | delay of Tmax, tablet versus liquid formulation ([1]; 40 mg, fasted): ~1 h | EC50 (BK Virus): 140 nM
